The record followed here is patent US9409882B2, “Pyridine derivatives” (Hoffmann-La Roche Inc., priority 2012, dated 2016).

The IC50 is the concentration that gives 50% inhibition. High values mean lower potency, low ones higher potency.

In experiment [1] the target is human Cathepsin S (Homo sapiens (Human), UniProt P25774). As to the kind of experiment: Cathepsin enzyme inhibition assay (fluorogenic peptide substrate), human Cat S. As to conditions: human Cat S 1 nM, substrate Z-Val-Val-Arg-AMC 20 μM, pH 6.5. It counts as biochemical. As to the method: (§1) Cathepsin Enzyme Inhibition Assay
human Cathepsin S, sequence (P25774 115-331): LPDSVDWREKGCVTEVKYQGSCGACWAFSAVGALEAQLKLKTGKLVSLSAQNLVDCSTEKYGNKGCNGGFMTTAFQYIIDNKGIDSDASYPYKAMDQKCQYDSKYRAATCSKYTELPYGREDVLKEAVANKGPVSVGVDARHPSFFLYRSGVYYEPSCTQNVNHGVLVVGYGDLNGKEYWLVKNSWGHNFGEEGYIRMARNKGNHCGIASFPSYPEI
(§2) Enzyme activity is measured by observing the increase in fluorescence intensity caused by cleavage of a peptide substrate containing a fluorophore whose emission is quenched in the intact peptide.
(§3) Assay buffer: 100 mM potassium phosphate pH 6.5, EDTA-Na 5 mM, Triton X-100 0.001%, DTT 5 mM.
(§4) Enzymes (all at 1 nM): human and mouse Cathepsin S, Cat K, Cat B, Cat L.
(§5) Substrate (20 μM): Z-Val-Val-Arg-AMC, except for Cat K which uses Z-Leu-Arg-AMC (both from Bachem).
(§6) AMC=7-Amino-4-Methyl-Coumarin.
(§7) Excitation 360 nm, Emission 465 nm.
(§8) Enzyme is added to the substance dilutions in 96-well microtitre plates and the reaction is started with substrate. […] IC50 are calculated by standard methods.
(§9) Inhibition of human Cat S, mouse Cat S, human Cat K, human Cat B, human Cat L and mouse Cat L have been measured separately.

For experiment [2], the target named is human Cat L (Homo sapiens (Human), UniProt P07711). As to the kind of experiment: Cathepsin enzyme inhibition assay (fluorogenic peptide substrate), human Cat L. It counts as biochemical. As to conditions: human Cat L 1 nM, substrate Z-Val-Val-Arg-AMC 20 μM, pH 6.5. As to the method:
as §1, §2, §3, §4, §5, §6, §7, §8, §9

human Cat L, sequence (P07711 114-333): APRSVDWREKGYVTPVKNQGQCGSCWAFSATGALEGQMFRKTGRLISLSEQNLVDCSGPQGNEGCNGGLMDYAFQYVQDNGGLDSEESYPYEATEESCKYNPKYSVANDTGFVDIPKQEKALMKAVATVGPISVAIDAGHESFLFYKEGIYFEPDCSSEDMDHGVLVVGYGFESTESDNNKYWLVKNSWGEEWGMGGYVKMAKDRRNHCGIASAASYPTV

For `N#CC1(NC(=O)[C@@H]2C[C@@H](Sc3ccc(C(F)(F)F)cn3)CN2C(=O)C2(c3ncc(Cl)cc3F)CC2)CC1` [Example 20, (2S,4R)-1-[1-(5-Chloro-3-fluoro-pyridin-2-yl)-cyclopropanecarbonyl]-4-(5-trifluoromethyl-pyridin-2-ylsulfanyl)-pyrrolidine-2-carboxylic acid (1-cyano-cyclopropyl)-amide], the IC50 turned out to be 393 nM in experiment [1] and 5060 nM in experiment [2].
The matching figures for `N#CC1(NC(=O)[C@@H]2C[C@@H](Sc3ncccc3C(F)(F)F)CN2C(=O)C2(c3ncc(Cl)cc3F)CC2)CC1` [Example 21, (2S,4R)-1-[1-(5-Chloro-3-fluoro-pyridin-2-yl)-cyclopropanecarbonyl]-4-(3-trifluoromethyl-pyridin-2-ylsulfanyl)-pyrrolidine-2-carboxylic acid (1-cyano-cyclopropyl)-amide]: 275 nM and 10000 nM.
Take `N#CC1(NC(=O)[C@@H]2C[C@@H](S(=O)(=O)c3ccc(Cl)cn3)CN2C(=O)C2(c3ncc(Cl)cc3F)CC2)CC1` [Example 22, (2S,4R)-1-[1-(5-Chloro-3-fluoro-pyridin-2-yl)-cyclopropanecarbonyl]-4-(5-chloropyridine-2-sulfonyl)-pyrrolidine-2-carboxylic acid (1-cyano-cyclopropyl)-amide]: the IC50 in experiment [1] came to 3 nM; in experiment [2] it was 1970 nM.
`Cc1cccc(S(=O)(=O)[C@@H]2C[C@@H](C(=O)NC3(C#N)CC3)N(C(=O)C3(c4ncc(Cl)cc4F)CC3)C2)n1` [Example 23, (2S,4R)-1-[1-(5-Chloro-3-fluoro-pyridin-2-yl)-cyclopropanecarbonyl]-4-(6-methylpyridine-2-sulfonyl)-pyrrolidine-2-carboxylic acid (1-cyano-cyclopropyl)-amide]: the IC50 in experiment [1] was 2.8 nM; in experiment [2] it was 5640 nM.
The matching figures for `N#CC1(NC(=O)[C@@H]2C[C@@H](S(=O)(=O)c3ccc(C(F)(F)F)cn3)CN2C(=O)C2(c3ncc(Cl)cc3F)CC2)CC1` [Example 24, (2S,4R)-1-[1-(5-Chloro-3-fluoro-pyridin-2-yl)-cyclopropanecarbonyl]-4-(5-trifluoromethyl-pyridine-2-sulfonyl)-pyrrolidine-2-carboxylic acid (1-cyano-cyclopropyl)-amide]: 6.24 nM and 2690 nM.
With `N#CC1(NC(=O)[C@@H]2C[C@@H](S(=O)(=O)c3ncccc3C(F)(F)F)CN2C(=O)C2(c3ncc(Cl)cc3F)CC2)CC1` [Example 25, (2S,4R)-1-[1-(5-Chloro-3-fluoro-pyridin-2-yl)-cyclopropanecarbonyl]-4-(3-trifluoromethyl-pyridine-2-sulfonyl)-pyrrolidine-2-carboxylic acid (1-cyano-cyclopropyl)-amide], the results for the half-inhibitory concentration (IC50) in experiment [1] and in experiment [2] were 3.21 nM and 13200 nM, respectively.
Consider `C[C@H](Oc1ccc(S(=O)(=O)[C@@H]2C[C@@H](C(=O)NC3(C#N)CC3)N(C(=O)C3(c4ncc(Cl)cc4F)CC3)C2)c(Cl)c1)C(F)(F)F` [Example 27, (2S,4R)-1-(1-(5-chloro-3-fluoropyridin-2-yl)cyclopropanecarbonyl)-4-(2-chloro-4-((S)-1,1,1-trifluoropropan-2-yloxy)phenylsulfonyl)-N-(1-cyanocyclopropyl)pyrrolidine-2-carboxamide], for which the figures for the IC50 in experiment [1] and in experiment [2] were 1.6 nM and 90 nM, respectively.
In the case of `N#CC1(NC(=O)[C@@H]2C[C@@H](S(=O)(=O)c3cc(C(F)(F)F)ccc3Cl)CN2C(=O)C2(c3ccc(Cl)cn3)CC2)CC1` [Example 29, (2S,4R)-1-[1-(5-Chloro-pyridin-2-yl)-cyclopropanecarbonyl]-4-(2-chloro-5-trifluoromethyl-benzenesulfonyl)-pyrrolidine-2-carboxylic acid (1-cyano-cyclopropyl)-amide], the IC50 in experiment [1] came to 0.618 nM; in experiment [2] it was 362 nM.
